Test results published in patent US9364496B2 (ONCOGENEX TECHNOLOGIES INC., priority 2013, dated 2016).
Several values for one entry are separate records, joined by “and”; a condition that tells them apart may be missing. Equal entries are not always repeated. Marks after values point to notes of the source that are not given here. Oligonucleotides are written 5' to 3', each unit as a sugar letter and its base; * is a phosphorothioate linkage, no mark a phosphodiester; rarer units and linkages stand in square brackets, end groups in braces. Plain capitals give the bases only. e = 2'-O-(2-methoxyethyl) (MOE); [5mC] = 5-methylcytosine; d = 2'-deoxy (DNA)

System: RPMI 8226 (human myeloma) xenograft
Test: In vivo activity of custirsen with Velcade, RPMI 8226 xenograft (Example 14)
Settings: for % of baseline / Δ %: weight
Protocol: The cells were implanted subcutaneously into female SCID mice with 7×10^6 cells inoculum.
Tumors and body weights were measured weekly until termination of the study on day 71. Response to treatment was evaluated for tumor growth inhibition (TGI) and tumor growth delay (TGD).
70 CB.17 SCID female mice, 4-6 weeks old, 16-20 grams, obtained from Harlan animal breeding center.
Sample from the cell suspension was taken for counting (0.3 ml in duplicates for CEDEX) before spun down. Cell viability was 85.6% and live cell concentration was 167×10^5 cells/ml. The pellet was resuspended in HBSS to a final volume of 8 ml.
Tumors were implanted subcutaneously with RPMI-8226 cells into the right flank of the mouse on Day 0. Each animal received a s.c. injection 7×10^6 cells in 0.1 ml suspension. On day 20, mice were sorted by the optimal tumor volume ([…]) and were allocated into 5 groups of 10 mice. Mice were individually tagged and their tumor volume and body weight were monitored weekly during the study. Tumor size was measured by caliper and calculated using the formula: […]
The treatment started on […] (0.2 ml per 20 grams v/w) and continued till day 52, after which the remaining mice were left for observation until day 71.

[1] = Custirsen 40 mg/kg ip qd*5, twk, day 51
[2] = OGX 40 ip qd*5, twk, Day 48, group mean
[3] = OGX 40 ip qd*5, twk, Day 48, individual mice, listed as OGX
[4] = OGX 40 ip qd*5, twk, Day 51, group mean
[5] = OGX 40 ip qd*5, twk, Day 51, individual mice, listed as OGX
[6] = OGX 40 ip qd*5, twk, Day 58, individual mice, listed as OGX
[7] = OGX 40 ip qd*5, twk, Day 63, individual mice, listed as OGX
[8] = OGX 40 ip qd*5, twk, earlier day (day not given), group mean
[9] = OGX 40 ip qd*5, twk, earlier day (day not given), group mean, tumor
[10] = OGX 40 ip qd*5, twk, earlier day (day not given), individual mouse, listed as OGX
[11] = OGX 40 ip qd*5, twk, earlier day (day not given), individual mouse, tumor, listed as OGX
[12] = OGX 40 ip qd*5, twk, group Mean, n 9
[13] = OGX 40 ip qd*5, twk, group Mean, n 9, vs Day 20

Custirsen: anti-clusterin antisense oligonucleotide CAGCAGCAGAGTCTTCATCAT, phosphorothioate backbone, 2′-O-methoxyethyl at nucleotides 1-4 and 18-21, 5-methylcytosines at 1, 4, 19 (antisense e[5mC]*eA*eG*e[5mC]*dA*dG*dC*dA*dG*dA*dG*dT*dC*dT*dT*dC*dA*eT*e[5mC]*eA*eT; listed as Homo sapiens)
Max BW (mean) reduction (Custirsen 40 mg/kg ip qd*5, twk, day 34): −4.7% | % TGI day 51 [1]: 46* % | No. of CR [1]: 0 | No. of PR [1]: 0 | No. of TRD [1]: 1 | No. og nTRD [1]: 0 | Δ mean tumor volume, (mean ± se) [1]: 667 ± 87 | % TGI day 51 (Custirsen 40 mg/kg ip qd*5, twk, day 51, listed as Custersin): 46% | volume [2]: 649.2 | weight [2]: 19.8 | Δ % (weight) [2]: 5.3% | Δ volume [2]: 503.8 | Δ weight [2]: 1.0 | % of baseline (weight) [3]: 105.6% and 110.6% and 103.7% and 103.8% and 102.1% and 113.0% and 103.2% and 101.2% | volume [3]: 495 and 354 and 689 and 763 and 717 and 1076 and 483 and 593 and 671 | weight [3]: 18.73 and 18.93 and 21.36 and 20.43 and 19.03 and 20.83 and 20.79 and 18.98 and 19.13 | Δ % (weight) [3]: 5.6% and 10.6% and 3.7% and 3.8% and 2.1% and 13.0% and 4.2% and 3.2% and 1.2% | Δ volume [3]: 371.9 and 229.1 and 550.6 and 621.8 and 571.9 and 925.7 and 329.0 and 431.2 and 502.7 | Δ weight [3]: 1.0 and 1.8 and 0.8 (3×) and 0.4 and 2.4 and 0.6 and 0.2 | volume [4]: 812.8 | weight [4]: 19.8 | Δ % (weight) [4]: 5.3% | Δ volume [4]: 667.3 | Δ weight [4]: 1.0 | % of baseline (weight) [5]: 103.8% and 109.8% and 102.5% and 102.7% and 114.2% and 100.4% | volume [5]: 687 and 392 and 817 and 923 and 1031 and 1324 and 603 and 734 and 804 | weight [5]: 18.40 and 18.79 and 21.71 and 20.17 and 19.13 and 21.06 and 20.78 and 18.47 and 19.87 | Δ % (weight) [5]: 3.8% and 9.8% and 5.4% and 2.5% and 2.7% and 14.2% and 4.2% and 0.4% and 5.1% | Δ volume [5]: 563.6 and 267.5 and 678.0 and 781.6 and 885.6 and 1173.4 and 448.7 and 571.8 and 635.5 | Δ weight [5]: 0.7 and 1.7 and 1.1 and 0.5 (2×) and 2.6 and 0.8 and 0.1 and 1.0 | % of baseline (weight) [6]: 105.6% and 110.0% and 108.4% | volume [6]: 797 and 560 and 1319 | weight [6]: 18.72 and 18.84 and 22.31 | Δ % (weight) [6]: 5.6% and 10.0% and 8.4% | Δ volume [6]: 673.0 and 435.6 and 1180.5 | Δ weight [6]: 1.0 and 1.7 (2×) | % of baseline (weight) [7]: 112.4% and 108.7% | volume [7]: 1127 and 848 and 2000 | weight [7]: 18.57 and 19.25 and 22.39 | Δ % (weight) [7]: 4.7% and 12.4% and 8.7% | Δ volume [7]: 1003.4 and 723.2 and 1861.0 | Δ weight [7]: 0.8 and 2.1 and 1.8 | weight [8]: 20.3 | Δ weight [8]: 1.5 | volume [9]: 1278.9 | Δ volume [9]: 1133.5 | % of baseline [8]: 108.0% | Δ % [8]: 8.0% | weight [10]: 20.77 and 19.53 and 21.42 and 21.45 and 19.51 and 20.43 | Δ weight [10]: 1.1 (2×) and 0.9 and 3.0 and 1.5 (2×) | volume [11]: 1418 and 1693 and 1970 and 1060 and 1218 and 1475 | Δ volume [11]: 1277.2 and 1547.4 and 1819.3 and 905.2 and 1056.5 and 1306.4 | % of baseline [10]: 116.2% and 107.5% and 108.1% | Δ % [10]: 5.5% and 4.8% and 16.2% and 7.5% and 6.0% and 8.1% | Day 41 % of baseline (weight) [12]: 101.5% | Day 41 volume [12]: 395.4 | Day 41 weight [12]: 19.1 | Day 45 volume [12]: 527.3 | Day 45 weight [12]: 19.9 | Day 41 Δ % (weight) [13]: 1.5% | Day 41 Δ volume [13]: 249.9 | Day 41 Δ weight [13]: 0.3 | Day 45 Δ % (weight) [13]: 5.6% | Day 45 Δ volume [13]: 381.9 | Day 45 Δ weight [13]: 1.0
